Drawing on US12643903B2, “Bifunctional compounds for degradation of EGFR and related methods of use” (BeiGene, Ltd., priority 2020, dated 2026), this text covers DC50 for 14 molecules.

Holding throughout (format): cell-based
What all share (conditions): 16 h treatment, EGFR degradation by HTRF
A general note: In TR-FRET formats the signal depends on donor and acceptor labels being close together.

Test [1] deals with T1, EGFR (Homo sapiens, UniProt P00533, L858R/T790M).
T1 construct: endogenous in cells; host or cells: H1975
T1 sequence (P00533 25-1210 T790M/L858R): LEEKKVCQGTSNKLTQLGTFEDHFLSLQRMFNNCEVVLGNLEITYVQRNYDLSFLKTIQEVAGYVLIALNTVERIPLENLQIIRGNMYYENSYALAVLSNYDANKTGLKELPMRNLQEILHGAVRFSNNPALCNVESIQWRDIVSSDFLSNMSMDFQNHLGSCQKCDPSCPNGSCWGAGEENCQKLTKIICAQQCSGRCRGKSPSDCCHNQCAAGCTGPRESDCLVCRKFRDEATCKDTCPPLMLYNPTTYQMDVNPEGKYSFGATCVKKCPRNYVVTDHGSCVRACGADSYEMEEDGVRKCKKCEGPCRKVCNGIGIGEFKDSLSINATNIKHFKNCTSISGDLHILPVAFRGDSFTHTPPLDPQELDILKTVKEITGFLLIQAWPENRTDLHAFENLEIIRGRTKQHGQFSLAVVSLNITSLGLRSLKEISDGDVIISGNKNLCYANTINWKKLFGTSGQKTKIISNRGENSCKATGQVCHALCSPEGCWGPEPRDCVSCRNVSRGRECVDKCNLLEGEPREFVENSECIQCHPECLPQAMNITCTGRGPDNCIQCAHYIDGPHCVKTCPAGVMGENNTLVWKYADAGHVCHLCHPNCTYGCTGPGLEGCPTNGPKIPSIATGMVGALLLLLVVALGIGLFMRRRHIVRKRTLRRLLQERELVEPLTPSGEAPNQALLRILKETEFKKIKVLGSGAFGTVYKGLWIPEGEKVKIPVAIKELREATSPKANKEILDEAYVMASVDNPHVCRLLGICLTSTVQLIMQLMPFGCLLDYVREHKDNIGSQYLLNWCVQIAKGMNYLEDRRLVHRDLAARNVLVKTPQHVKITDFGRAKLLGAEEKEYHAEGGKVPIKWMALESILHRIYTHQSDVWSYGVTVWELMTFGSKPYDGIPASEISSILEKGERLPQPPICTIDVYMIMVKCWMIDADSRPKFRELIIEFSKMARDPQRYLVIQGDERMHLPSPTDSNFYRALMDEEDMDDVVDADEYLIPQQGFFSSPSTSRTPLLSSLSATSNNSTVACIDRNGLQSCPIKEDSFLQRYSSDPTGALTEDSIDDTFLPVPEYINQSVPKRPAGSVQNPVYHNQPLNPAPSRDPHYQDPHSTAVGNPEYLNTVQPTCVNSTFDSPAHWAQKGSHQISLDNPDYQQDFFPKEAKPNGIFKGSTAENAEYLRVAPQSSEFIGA
The test can be described thus: Cell Degradation 1: EGFR degradation in H1975 cells, HTRF assay. In short, it runs like this:
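H1975 cells treated with compound for 16 h, lysed 1 h at room temperature. EGFR measured by HTRF after overnight antibody incubation (665/620 nm). DC50 from four-parameter logistic fit of percent inhibition against concentration.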

Test [2] concerns the target T2, EGFR (Homo sapiens, UniProt P00533, DEL746-750).
T2 construct: endogenous in cells; host or cells: HCC827
The test is described as follows: Cell Degradation 2: EGFR degradation in HCC827 cells, HTRF assay. The method in brief: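 Compound-treated HCC827 cells were lysed after 16 h and EGFR measured by HTRF (337 nm excitation, 665/620 nm emission) after overnight antibody incubation at room temperature. DC50 came from a four-parameter fit of percent inhibition against compound concentration.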

In test [3] the test system is EGFR DTC. The test is described as follows: Cell Degradation 3: EGFR degradation in BaF3 cells (DTC), HTRF assay. The protocol:
(§1) Cell Degradation 3 Cell Treatment
(§2) BaF3 cells are treated with compounds diluted in 0.2% DMSO, dilution is done according to the following protocol: (1) make 500× stock solution in DMSO from 5 mM by 4-fold dilution, total 8 doses were included; (2) make 2× solution in cell culture medium by transferring 0.5 μl 500× stock solution into 125 μl medium; (3) 30 μl of 2× solution is added to cells and incubate for 16 h.
(§3) After 16 h treatment, add 20 μl 4×lysis buffer to each well; seal the plate and incubate 1 hour at room temperature on a plate shaker; Once the cells are lysed, 16 μL of cell lysate are transferred to a PE 384-well HTRF detection plate (for triple mutant cells, the lysate were diluted by the qual volume 1×lysis buffer before transfer); 4 μL of pre-mixed HTRF antibodies are added to each well; Cover the plate with a plate sealer, spin 1000 rpm for 1 min, Incubate overnight at room temperature; Read on BMG PheraStar with HTRF protocol (337 nm-665 nm-620 nm).
(§4) The IC50 (DC50) value of a compound can be obtained by fitting the following equation Y=Bottom+(TOP−Bottom)/(1+((IC50/X)^hillslope))
(§5) Wherein, X and Y are known values, and IC50, Hillslope, Top and Bottom are the parameters obtained by fitting with software. Y is the inhibition percentage (calculated from the equation), X is the concentration of the compound; IC50 is the concentration of the compound when the 50% inhibition is reached. The smaller the IC50 value is, the stronger the inhibitory ability of the compound is. Vice versa, the higher the IC50 value is, the weaker the ability the inhibitory ability of the compound is; Hillslope represents the slope of the fitted curve, generally around 1*; Bottom represents the minimum value of the curve obtained by data fitting, which is generally 0%±20%; Top represents the maximum value of the curve obtained by data fitting, which is generally 100%±20%. The experimental data were fitted by calculating and analyzing with Dotmatics data analysis software.

The target in test [4] is T3, EGFR LTC (Homo sapiens, UniProt P00533, C797S/L858R/T790M).
T3 construct: expressed in transfected cells; host or cells: BaF3
T3 sequence (P00533 25-1210 T790M/C797S/L858R): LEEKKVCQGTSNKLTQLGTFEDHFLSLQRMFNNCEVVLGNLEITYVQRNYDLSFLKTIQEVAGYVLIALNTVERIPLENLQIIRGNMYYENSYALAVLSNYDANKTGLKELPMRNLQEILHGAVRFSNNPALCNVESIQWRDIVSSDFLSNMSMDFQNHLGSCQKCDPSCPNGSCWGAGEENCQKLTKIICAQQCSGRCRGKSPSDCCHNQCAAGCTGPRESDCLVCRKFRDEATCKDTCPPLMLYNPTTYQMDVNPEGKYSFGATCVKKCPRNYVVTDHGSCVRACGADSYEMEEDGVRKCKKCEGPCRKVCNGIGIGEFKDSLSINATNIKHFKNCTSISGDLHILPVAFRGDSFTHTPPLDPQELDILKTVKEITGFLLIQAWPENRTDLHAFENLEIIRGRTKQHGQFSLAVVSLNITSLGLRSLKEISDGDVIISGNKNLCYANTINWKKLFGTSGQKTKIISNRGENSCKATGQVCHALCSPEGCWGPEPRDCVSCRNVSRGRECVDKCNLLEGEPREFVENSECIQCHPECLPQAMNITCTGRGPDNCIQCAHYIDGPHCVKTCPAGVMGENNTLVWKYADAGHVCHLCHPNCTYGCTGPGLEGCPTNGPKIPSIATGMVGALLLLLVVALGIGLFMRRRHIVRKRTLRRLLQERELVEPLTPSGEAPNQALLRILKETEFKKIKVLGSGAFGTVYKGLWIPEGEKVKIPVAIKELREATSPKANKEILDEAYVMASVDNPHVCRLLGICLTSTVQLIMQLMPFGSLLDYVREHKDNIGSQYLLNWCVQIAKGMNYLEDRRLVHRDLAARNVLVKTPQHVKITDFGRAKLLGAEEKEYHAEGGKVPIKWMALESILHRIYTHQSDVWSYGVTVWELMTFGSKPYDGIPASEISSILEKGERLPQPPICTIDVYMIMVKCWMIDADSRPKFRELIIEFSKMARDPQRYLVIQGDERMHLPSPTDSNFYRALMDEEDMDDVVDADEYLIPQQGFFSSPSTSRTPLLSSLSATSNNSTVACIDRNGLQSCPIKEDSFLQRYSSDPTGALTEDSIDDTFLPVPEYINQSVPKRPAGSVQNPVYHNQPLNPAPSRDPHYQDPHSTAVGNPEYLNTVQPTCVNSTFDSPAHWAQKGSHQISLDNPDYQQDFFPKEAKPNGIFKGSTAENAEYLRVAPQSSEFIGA
The test is described as follows: Cell Degradation 3: EGFR degradation in BaF3 cells (LTC), HTRF assay. The protocol:
as §1, §2, §3, §4, §5

A word on the DC50: it is the concentration at which degradation of the target reaches its halfway point. High values mean a less potent degrader, low ones a more potent degrader.

T2 sequence (P00533 with tags, fused parts or gaps DEL746-750): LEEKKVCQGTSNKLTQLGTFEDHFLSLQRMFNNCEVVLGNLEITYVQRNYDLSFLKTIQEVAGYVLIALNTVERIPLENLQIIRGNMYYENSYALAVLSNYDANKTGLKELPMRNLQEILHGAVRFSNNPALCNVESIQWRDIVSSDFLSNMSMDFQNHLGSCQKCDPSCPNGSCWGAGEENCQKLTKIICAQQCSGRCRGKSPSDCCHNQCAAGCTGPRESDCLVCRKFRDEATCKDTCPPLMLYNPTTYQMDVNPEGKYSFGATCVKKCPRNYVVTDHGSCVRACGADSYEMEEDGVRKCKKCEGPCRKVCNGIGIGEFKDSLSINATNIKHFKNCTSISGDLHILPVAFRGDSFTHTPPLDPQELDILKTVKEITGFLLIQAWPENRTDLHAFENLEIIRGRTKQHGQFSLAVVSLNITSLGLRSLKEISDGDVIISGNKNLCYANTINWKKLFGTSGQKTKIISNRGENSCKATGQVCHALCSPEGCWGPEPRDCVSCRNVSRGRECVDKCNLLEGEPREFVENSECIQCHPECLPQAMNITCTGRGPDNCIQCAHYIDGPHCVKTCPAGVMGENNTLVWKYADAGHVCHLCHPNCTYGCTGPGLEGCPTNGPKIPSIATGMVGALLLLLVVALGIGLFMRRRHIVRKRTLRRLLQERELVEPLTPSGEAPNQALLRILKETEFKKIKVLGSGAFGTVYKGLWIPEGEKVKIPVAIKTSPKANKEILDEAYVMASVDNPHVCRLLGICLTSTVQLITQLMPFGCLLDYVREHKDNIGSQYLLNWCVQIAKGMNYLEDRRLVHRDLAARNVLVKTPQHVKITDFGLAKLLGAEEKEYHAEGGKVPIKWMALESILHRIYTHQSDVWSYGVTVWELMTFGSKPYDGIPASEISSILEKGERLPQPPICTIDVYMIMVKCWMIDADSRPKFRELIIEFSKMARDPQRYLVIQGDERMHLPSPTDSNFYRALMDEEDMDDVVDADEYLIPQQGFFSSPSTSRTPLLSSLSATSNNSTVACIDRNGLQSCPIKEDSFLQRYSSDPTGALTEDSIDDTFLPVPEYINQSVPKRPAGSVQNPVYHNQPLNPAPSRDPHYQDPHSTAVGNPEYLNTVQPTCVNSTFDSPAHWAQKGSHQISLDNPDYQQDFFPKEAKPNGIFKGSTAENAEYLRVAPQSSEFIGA
T2 sequence (Q96SW2 whole entry partner): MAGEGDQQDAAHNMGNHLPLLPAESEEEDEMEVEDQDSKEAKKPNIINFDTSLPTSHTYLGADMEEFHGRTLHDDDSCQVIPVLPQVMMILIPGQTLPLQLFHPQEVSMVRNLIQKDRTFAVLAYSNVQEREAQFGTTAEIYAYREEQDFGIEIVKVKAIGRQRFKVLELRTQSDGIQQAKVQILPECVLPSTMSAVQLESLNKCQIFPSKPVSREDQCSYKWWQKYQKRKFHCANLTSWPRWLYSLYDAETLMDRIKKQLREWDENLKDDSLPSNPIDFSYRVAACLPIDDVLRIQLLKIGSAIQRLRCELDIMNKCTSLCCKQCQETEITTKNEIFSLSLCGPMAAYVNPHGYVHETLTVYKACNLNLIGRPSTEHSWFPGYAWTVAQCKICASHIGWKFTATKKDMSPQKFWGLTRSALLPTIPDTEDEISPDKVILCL

With `CS(=O)(=O)N1CCc2cccc(Nc3nc(Nc4ccc(N5CCC(N6CCN(CCC7CCN(c8ccc9c(c8)C(=O)N(C8CCC(=O)NC8=O)C9=O)CC7)CC6)CC5)c(F)c4)ncc3Cl)c21` (stereo not shown) [Example 81, 5-(4-(2-(4-(1-(4-((5-chloro-4-((1-(methylsulfonyl)indolin-7-yl)amino)pyrimidin-2-yl)amino)-2-fluorophenyl)piperidin-4-yl)piperazin-1-yl)ethyl)piperidin-1-yl)-2-(2,6-dioxopiperidin-3-yl)isoindoline-1,3-dione], the half-maximal degradation concentration (DC50) in test [1] was 12.2 nM; in test [2] it was 3.4 nM.
Consider `COc1cc(N2CCC(N3CCN(CCC4CN(c5ccc(C6CCC(=O)NC6=O)cc5)C4)CC3)CC2)ccc1Nc1ncc(Cl)c(Nc2cccc3c2N(S(C)(=O)=O)CC3)n1` (stereo not shown) [Example 84, 3-(4-(3-(2-(4-(1-(4-((5-chloro-4-((1-(methylsulfonyl)indolin-7-yl)amino)pyrimidin-2-yl)amino)-3-methoxyphenyl)piperidin-4-yl)piperazin-1-yl)ethyl)azetidin-1-yl)phenyl)piperidine-2,6-dione], for which the DC50 is > 10000 nM in test [1] and 1980 nM in test [2].
As to `COc1cc(N2CCC(N3CCN(CCC4CCN(c5ccc(C6CCC(=O)NC6=O)c(F)c5)CC4)CC3)CC2)c(C)cc1Nc1ncc(Br)c(Nc2cccc3c2N(S(C)(=O)=O)CC3)n1` (stereo not shown) [Example 90, 3-(4-(4-(2-(4-(1-(4-((5-bromo-4-((1-(methylsulfonyl)indolin-7-yl)amino)pyrimidin-2-yl)amino)-5-methoxy-2-methylphenyl)piperidin-4-yl)piperazin-1-yl)ethyl)piperidin-1-yl)-2-fluorophenyl)piperidine-2,6-dione], the DC50 was determined as 96.4 nM in test [1] and 40.2 nM in test [2].
For `COc1cc(N2CCC(N3CCN(CC4CN(c5ccc6c(c5)C(=O)N(C5CCC(=O)NC5=O)C6=O)C4)CC3)CC2)c(C)cc1Nc1ncc(Br)c(Nc2cccc3c2N(S(C)(=O)=O)CC3)n1` (stereo not shown) [Example 151, 5-(3-((4-(1-(4-((5-bromo-4-((1-(methylsulfonyl)indolin-7-yl)amino)pyrimidin-2-yl)amino)-5-methoxy-2-methylphenyl)piperidin-4-yl)piperazin-1-yl)methyl)azetidin-1-yl)-2-(2,6-dioxopiperidin-3-yl)isoindoline-1,3-dione], the DC50 in test [3] came to 14 nM; in test [4], 17 nM.
As to `COc1cc(N2CCC(N3CCN(CCc4ccc(NC5CCC(=O)NC5=O)cc4)CC3)CC2)c(C)cc1Nc1ncc(Br)c(Nc2cccc3c2N(S(C)(=O)=O)CC3)n1` (stereo not shown) [Example 152, 3-((4-(2-(4-(1-(4-((5-bromo-4-((1-(methylsulfonyl)indolin-7-yl)amino)pyrimidin-2-yl)amino)-5-methoxy-2-methylphenyl)piperidin-4-yl)piperazin-1-yl)ethyl)phenyl)amino)piperidine-2,6-dione], the values for the DC50 in test [3] and in test [4] were 66 nM and 27 nM, respectively.
The molecule `CCc1cc(Nc2ncc(Br)c(Nc3ccc(CC)c4c3N(S(C)(=O)=O)CC4)n2)c(OC)cc1N1CCC(N2CCN(CCc3cc(F)c(C4CCC(=O)NC4=O)c(F)c3)CC2)CC1` (stereo not shown) [Example 192, 3-(4-(2-(4-(1-(4-((5-bromo-4-((4-ethyl-1-(methylsulfonyl)indolin-7-yl)amino)pyrimidin-2-yl)amino)-2-ethyl-5-methoxyphenyl)piperidin-4-yl)piperazin-1-yl)ethyl)-2,6-difluorophenyl)piperidine-2,6-dione] had a DC50 in test [4] of 65 nM.
Same read-out and setting: with `CCc1cc(Nc2ncc(Br)c(Nc3ccc(C4CC4)c4c3N(S(C)(=O)=O)CC4)n2)c(OC)cc1N1CCC(N2CCN(CCc3cc(F)c(C4CCC(=O)NC4=O)c(F)c3)CC2)CC1` (stereo not shown) [Example 193, 3-(4-(2-(4-(1-(4-((5-bromo-4-((4-cyclopropyl-1-(methylsulfonyl)indolin-7-yl)amino)pyrimidin-2-yl)amino)-2-ethyl-5-methoxyphenyl)piperidin-4-yl)piperazin-1-yl)ethyl)-2,6-difluorophenyl)piperidine-2,6-dione] the figure was 74 nM.
The same measure, in the same setting: with `CCc1cc(Nc2ncc(Br)c(Nc3ccc(F)c4c3N(S(C)(=O)=O)CC4)n2)c(OC)cc1N1CCC(N2CCN(C(=O)[C@@H]3CCN(c4cc(F)c([C@H]5CCC(=O)NC5=O)c(F)c4)C3)CC2)CC1` [Example 194, (R)-3-(4-((R)-3-(4-(1-(4-((5-bromo-4-((4-fluoro-1-(methylsulfonyl)indolin-7-yl)amino)pyrimidin-2-yl)amino)-2-ethyl-5-methoxyphenyl)piperidin-4-yl)piperazine-1-carbonyl)pyrrolidin-1-yl)-2,6-difluorophenyl)piperidine-2,6-dione] the figure was 29 nM.
On the same count and under the same terms, as for `CCc1cc(Nc2ncc(Br)c(Nc3ccc(F)c4c3N(S(C)(=O)=O)CC4)n2)c(OC)cc1N1CCC(N2CCN(CCc3cc(F)c([C@H]4CCC(=O)NC4=O)c(F)c3)CC2)CC1` [Example 195, (R)-3-(4-(2-(4-(1-(4-((5-bromo-4-((4-fluoro-1-(methylsulfonyl)indolin-7-yl)amino)pyrimidin-2-yl)amino)-2-ethyl-5-methoxyphenyl)piperidin-4-yl)piperazin-1-yl)ethyl)-2,6-difluorophenyl)piperidine-2,6-dione], the figure is 24 nM; as for `CCc1cc(Nc2ncc(Br)c(Nc3ccc(C(F)(F)F)c4c3N(S(C)(=O)=O)CC4)n2)c(OC)cc1N1CCC(N2CCN(C(=O)C3CN(c4cc(F)c([C@H]5CCC(=O)NC5=O)c(F)c4)C3)CC2)CC1` [Example 196, (R)-3-(4-(3-(4-(1-(4-((5-bromo-4-((1-(methylsulfonyl)-4-(trifluoromethyl)indolin-7-yl)amino)pyrimidin-2-yl)amino)-2-ethyl-5-methoxyphenyl)piperidin-4-yl)piperazine-1-carbonyl)azetidin-1-yl)-2,6-difluorophenyl)piperidine-2,6-dione], 71 nM.
In test [4], `CCc1cc(Nc2ncc(Br)c(Nc3ccc(C(F)(F)F)c4c3N(S(C)(=O)=O)CC4)n2)c(OC)cc1N1CCC(N2CCN(C(=O)[C@@H]3CCN(c4cc(F)c([C@H]5CCC(=O)NC5=O)c(F)c4)C3)CC2)CC1` [Example 197, (R)-3-(4-((R)-3-(4-(1-(4-((5-bromo-4-((1-(methylsulfonyl)-4-(trifluoromethyl)indolin-7-yl)amino)pyrimidin-2-yl)amino)-2-ethyl-5-methoxyphenyl)piperidin-4-yl)piperazine-1-carbonyl)pyrrolidin-1-yl)-2,6-difluorophenyl)piperidine-2,6-dione] had a DC50 of 83 nM.
On to `CCc1cc(Nc2ncc(Br)c(Nc3ccc(CC)c4c3N(S(C)(=O)=O)CC4)n2)c(OC)cc1N1CCC(N2CCN(C(=O)[C@@H]3CCN(c4cc(F)c([C@H]5CCC(=O)NC5=O)c(F)c4)C3)CC2)CC1` [Example 198, (R)-3-(4-((R)-3-(4-(1-(4-((5-bromo-4-((4-ethyl-1-(methylsulfonyl)indolin-7-yl)amino)pyrimidin-2-yl)amino)-2-ethyl-5-methoxyphenyl)piperidin-4-yl)piperazine-1-carbonyl)pyrrolidin-1-yl)-2,6-difluorophenyl)piperidine-2,6-dione], for which, in test [4], the 50% degradation concentration (DC50) came to 34 nM.
Take `CCc1cc(Nc2ncc(Br)c(Nc3ccc(N(C)C)c4c3N(S(C)(=O)=O)CC4)n2)c(OC)cc1N1CCC(N2CCN(CCc3cc(F)c([C@H]4CCC(=O)NC4=O)c(F)c3)CC2)CC1` [Example 200, (R)-3-(4-(2-(4-(1-(4-((5-bromo-4-((4-(dimethylamino)-1-(methylsulfonyl)indolin-7-yl)amino)pyrimidin-2-yl)amino)-2-ethyl-5-methoxyphenyl)piperidin-4-yl)piperazin-1-yl)ethyl)-2,6-difluorophenyl)piperidine-2,6-dione]: half-maximal degradation in test [4] (DC50) was put at 513 nM.
Same read-out and setting: as for `CCOc1cc(N2CCC(N3CCN(CCc4cc(F)c([C@H]5CCC(=O)NC5=O)c(F)c4)CC3)CC2)c(CC)cc1Nc1ncc(Br)c(Nc2ccc(CC)c3c2N(S(C)(=O)=O)CC3)n1` [Example 203, (R)-3-(4-(2-(4-(1-(4-((5-bromo-4-((4-ethyl-1-(methylsulfonyl)indolin-7-yl)amino)pyrimidin-2-yl)amino)-5-ethoxy-2-ethylphenyl)piperidin-4-yl)piperazin-1-yl)ethyl)-2,6-difluorophenyl)piperidine-2,6-dione], the figure is 83 nM.
